Test results published in patent US12018172B2, “Sidechain functionalized organosiloxanes, coating compositions containing sidechain functionalized organosiloxanes, coated articles, and methods of making and methods of use thereof” (Adaptive Surface Technologies, Inc., priority 2018, dated 2024).

Assay: Biocide miscibility screening
Assay type: physicochemical
Details: 50:50 mixture, 24 hrs
Description: Each component was mixed as 50:50 (based on active solids) mixture. The content was allowed to sit for 24 hrs before photographing.

Row | Compound | Miscibility of Econea and SeaNine 211N with each other | Miscibility with AM-14 | Miscibility with AM-24 | Miscibility with PDMS (silanol)
1 | CCCCCCCCn1sc(Cl)c(Cl)c1=O [SeaNine 211N, 4,5-Dichloro-2-n-octyl-4-isothiazolin-4-one] | not miscible | miscible | miscible | did not show complete miscibility
2 | N#Cc1c(-c2ccc(Cl)cc2)[nH]c(C(F)(F)F)c1Br [Econea, Tralopyril 4-bromo-2-(4-chlorophenyl)-5-(trifluoromethyl)-1H-pyrrole-3-carbonitrile] | not miscible | only partially miscible | good miscibility | only partially miscible
